In brackets after ≈: the same amount, converted by molar mass. Like-named read-outs stand apart in the source and are kept apart here.
How the values were obtained:
[1] = Solubility in water and in ethanol; assay type: physicochemical
Source text: The solubilities of quercetin in water and in ethanol are, by contrast, only 0.04 g/l and 15.8 g/l respectively.

[2] = compared with the other investigated hydroxyflavones, over the entire pH range; cited from earlier work

SMILES: O=c1c(O)c(-c2ccc(O)c(O)c2)oc2cc(O)cc(O)c12 [quercetin, 3,3′,4′,5,7-pentahydroxyflavone]
- solubility ([1]; organic solvent or mixture, at 25° C. in ethanol, read-out: solubility in ethanol): 15.8 mg/mL (≈ 52.3 mM)
- antioxidative action [2]: highest activity

SMILES: CCCCOC1(c2ccc(O)c(O)c2)Oc2cc(O)cc(O)c2C(=O)C1(O)O (stereo not shown) [2-butoxy-2-(3,4-dihydroxyphenyl)-3,3,5,7-tetrahydroxychroman-4-one]
- solubility ([1]; 25 °C, organic solvent or mixture): 855 mg/mL (≈ 2180 mM)
- solubility ([1]; 25 °C, water): 2.9 mg/mL (≈ 7.39 mM)
